The source of these data is US4298739A, “Novel carbostyril derivatives” (priority 1977, dated 1981).

In test [1] the test system is rabbit platelet. Put plainly: Collagen-induced aggregation in rabbit platelets (AG-II Aggregometer). In kind it is cell-based. Further details: inhibition: dose or concentration left out as unconfirmed. The settings on record: Oryctolagus cuniculus, Platelet, read-out: Inhibition effect on collagen induced aggregation in rabbit platelet. In a few lines:
(§1)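 Rabbit citrated PRP, diluted with PPP to 300,000/mm^3 platelets for ADP or 450,000/mm^3 for collagen, was preincubated with compound 1 min at 37° C. before inducer was added. ADP at 7.5×10^-5 M or collagen supernatant in Auren Beronal buffer pH 7.35; transmittance change recorded, percent inhibition derived.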

In test [2] the test system is rabbit platelet. As to the kind of experiment: ADP-induced aggregation in rabbit platelets (AG-II Aggregometer). Format: cell-based. Details: inhibition: dose or concentration left out as unconfirmed. The settings on record: Oryctolagus cuniculus, Platelet, read-out: Inhibition effect on ADP-induced aggregation in rabbit platelet. In a few lines:
as §1

With `CC(=O)OC1CCC(N(C)C(=O)CCCOc2ccc3[nH]c(=O)ccc3c2)CC1` (centres unmarked) [compound 3, 6-{3-[N-Methyl-N-(4-acetyloxycyclohexyl)aminocarbonyl]propoxy}carbostyril], the inhibition at 100 µM (stock) in the test with rabbit platelet [1] (10^-4 mole) came out at 90.8%; in the test on rabbit platelet [2] (10^-4 mole), 91.5%. Moreover, the values for the inhibition at 10 µM (stock) in the test on rabbit platelet [1] (10^-5 mole) and with rabbit platelet [2] (10^-5 mole) were 84.8% and 75%, respectively. The figures for the inhibition at 1 µM (stock) in the test with rabbit platelet [1] (10^-6 mole) and in the test with rabbit platelet [2] (10^-6 mole) were 61.9% and 20.8%, respectively.

As to `CN(C(=O)CCCOc1ccc2[nH]c(=O)ccc2c1)C1CCCCC1` [compound 16, 6-[3-(N-Methyl-N-cyclohexylaminocarbonyl)propoxy]carbostyril], the results for the inhibition with rabbit platelet [1] and in the test with rabbit platelet [2] were 90.5% and 91.7%, respectively.
